Measured values taken from US9546156B2, “N-bicyclic aryl,N'-pyrazolyl urea, thiourea, guanidine cyanoguanidine compounds as TrkA kinase inhibitors” (Array BioPharma Inc., priority 2012, dated 2017).
Counter-ions that a name gives are not always drawn.

Biological target: T1, His-tagged recombinant human TrkA (Homo sapiens, UniProt P04629)
T1 construct: 6HIS tagged cytoplasmic domain from Invitrogen, Catalog No. PV3144; purchased Invitrogen PV3144
Test: TrkA LanthaScreen Eu Kinase Binding Assay
Settings: averaged IC50; TR-FRET binding assay, 60 min, 22° C.; read-out: TrkA Enzyme IC50
Description: TrkA binding activity was determined in a TrkA LanthaScreen™ Eu Kinase Binding Assay. 5 nM His-tagged recombinant human TrkA (6HIS tagged cytoplasmic domain from Invitrogen, Catalog No. PV3144) was incubated with 4 nM Alexa-Fluor® Tracer 236 (Invitrogen Cat. No. PV5592), 2 nM biotinylated anti-His (Invitrogen Cat. No. PV6090), and 2 nM europium-labeled Streptavidin (Invitrogen Cat. No. PV5899), in buffer (25 mM MOPS, pH 7.5, 5 mM MgCl2, 0.005% Triton X-100). Three fold serial dilutions of compounds of the invention in DMSO were added to a final percentage of 2% DMSO. After 60-minute incubation at 22° C., the reaction was measured using the EnVision multimode plate reader (PerkinElmer) via TR-FRET dual wavelength detection at […]. The percent of control was calculated using a ratiometric emission factor. The IC50 values were determined by fitting a four parameter model to the percent of control data.
Table A provides averaged IC50 values for compounds of the invention when tested in the assay of Example A, where A represents an averaged IC50 value <100 nM; B represents an averaged IC50 value from 100 to 1,000 nM; and C represents an averaged IC50 value from 1,000 to 10,000 nM.

T1 sequence (P04629 440-796 limits assumed): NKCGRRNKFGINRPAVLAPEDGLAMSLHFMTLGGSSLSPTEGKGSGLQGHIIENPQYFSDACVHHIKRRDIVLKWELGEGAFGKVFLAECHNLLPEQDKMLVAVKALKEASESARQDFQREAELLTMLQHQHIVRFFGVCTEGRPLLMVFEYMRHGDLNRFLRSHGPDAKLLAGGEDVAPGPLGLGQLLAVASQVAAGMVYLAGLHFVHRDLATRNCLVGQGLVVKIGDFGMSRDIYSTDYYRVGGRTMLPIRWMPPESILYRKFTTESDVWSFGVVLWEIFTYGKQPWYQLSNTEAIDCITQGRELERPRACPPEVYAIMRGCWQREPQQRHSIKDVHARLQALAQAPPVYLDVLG

Row | Structure (SMILES) | IC50 [nM]
1 | O=C(Nc1ccc(Cl)c2ccccc12)Nc1c(Cl)c(OCC2CCNCC2)nn1-c1ccccc1 [Example 11, 1-(4-chloro-1-phenyl-3-(piperidin-4-ylmethoxy)-1H-pyrazol-5-yl)-3-(4-chloronaphthalen-1-yl)urea hydrochloride] | < 100
2 | Cc1c(-c2cnn(C)c2)nn(-c2ccccc2)c1NC(=O)Nc1cncc2ccccc12 [Example 24, 1-(1′,4-dimethyl-1-phenyl-1H,1′H-3,4′-bipyrazol-5-yl)-3-(isoquinolin-4-yl)urea] | 1000 to 10000
3 | Cc1c(C2CCN(C)CC2)nn(-c2ccccc2)c1NC(=O)Nc1ccc(Cl)c2ccccc12 [Example 14, 1-(4-chloronaphthalen-1-yl)-3-(4-methyl-3-(1-methylpiperidin-4-yl)-1-phenyl-1H-pyrazol-5-yl)urea hydrochloride] | < 100
4 | O=C(Nc1ccc(Cl)c2ccccc12)Nc1c2c(nn1-c1ccccc1)CCC2 [Example 2, 1-(4-chloronaphthalen-1-yl)-3-(2-phenyl-2,4,5,6-tetrahydrocyclopenta[c]pyrazol-3-yl)urea] | < 100
5 | Cc1c(C2CCNCC2)nn(-c2ccccc2)c1NC(=O)Nc1ncc(Cl)c2ccccc12 [Example 22, 1-(4-chloroisoquinolin-1-yl)-3-(4-methyl-1-phenyl-3-(piperidin-4-yl)-1H-pyrazol-5-yl)urea hydrochloride] | 1000 to 10000
6 | COCc1cc2c(NC(=O)Nc3c(C)c(-c4cnn(C)c4)nn3-c3ccccc3)cccc2cn1 [Example 3, 1-(1′,4-dimethyl-1-phenyl-1H,1′H-[3,4′-bipyrazol]-5-yl)-3-(3-(methoxymethyl)isoquinolin-5-yl)urea trifluoroacetate] | < 100
7 | COCc1cc2c(NC(=O)Nc3c(C)c(-c4cnn(C)c4)nn3-c3ccccc3)ccc(Cl)c2cn1 [Example 6, 1-(8-chloro-3-(methoxymethyl)isoquinolin-5-yl)-3-(1′,4-dimethyl-1-phenyl-1H,1′H-[3,4′-bipyrazol]-5-yl)urea] | < 100
8 | Cc1c(C2CCN(CC(F)(F)F)CC2)nn(-c2ccccc2)c1NC(=O)Nc1ccc(Cl)c2ccccc12 [Example 13, 1-(4-chloronaphthalen-1-yl)-3-(4-methyl-1-phenyl-3-(1-(2,2,2-trifluoroethyl)piperidin-4-yl)-1H-pyrazol-5-yl)urea] | < 100
9 | COCc1ccc2ccc(Cl)c(NC(=O)Nc3c(C)c(-c4cnn(C)c4)nn3-c3ccccc3)c2c1 [Example 18, 1-(2-chloro-7-(methoxymethyl)naphthalen-1-yl)-3-(1′,4-dimethyl-1-phenyl-1H,1′H-[3,4′-bipyrazol]-5-yl)urea] | < 100
10 | COCc1ccc2c(Cl)ccc(NC(=O)Nc3c(C)c(C4CCN(C)CC4)nn3-c3ccccc3)c2c1 [Example 20, 1-(4-chloro-7-(methoxymethyl)naphthalen-1-yl)-3-(4-methyl-3-(1-methylpiperidin-4-yl)-1-phenyl-1H-pyrazol-5-yl)urea hydrochloride] | < 100
11 | COCc1ccc2c(Cl)ccc(NC(=O)Nc3c(C)c(-c4cnn(C)c4)nn3-c3ccccc3)c2c1 [Example 19, 1-(4-chloro-7-(methoxymethyl)naphthalen-1-yl)-3-(1′,4-dimethyl-1-phenyl-1H,1′H-[3,4′-bipyrazol]-5-yl)urea] | < 100
12 | COCc1cc2c(NC(=O)Nc3c(C)c(-c4cnn(C)c4)nn3-c3ccccc3)ccc(Br)c2cn1 [Example 5, 1-(8-bromo-3-(methoxymethyl)isoquinolin-5-yl)-3-(1′,4-dimethyl-1-phenyl-1H,1′H-[3,4′-bipyrazol]-5-yl)urea] | < 100
13 | Cc1c(C2CCNCC2)nn(-c2ccccc2)c1NC(=O)Nc1ccc(Cl)c2ccccc12 [Example 12, 1-(4-chloronaphthalen-1-yl)-3-(4-methyl-1-phenyl-3-(piperidin-4-yl)-1H-pyrazol-5-yl)urea hydrochloride] | < 100
14 | COCc1cc2c(NC(=O)Nc3c(C)c(-c4cnn(C)c4)nn3-c3ccccc3)c(Cl)ccc2cn1 [Example 4, 1-(6-chloro-3-(methoxymethyl)isoquinolin-5-yl)-3-(1′,4-dimethyl-1-phenyl-1H,1′H-[3,4′-bipyrazol]-5-yl)urea] | 100 to 1000
15 | COC[C@H](O)COc1nn(-c2ccccc2)c(NC(=O)Nc2ccc(Cl)c3ccccc23)c1C [Example 15, (S)-1-(4-chloronaphthalen-1-yl)-3-(3-(2-hydroxy-3-methoxypropoxy)-4-methyl-1-phenyl-1H-pyrazol-5-yl)urea] | < 100

Results, then the compound that gave them:

Row | IC50 [nM] | Structure (SMILES)
16 | 100 to 1000 | Cc1c(-c2cnn(C)c2)nn(-c2ccccc2)c1NC(=O)Nc1cccc2ccccc12 [Example 10, 1-(1′,4-dimethyl-1-phenyl-1H,1′H-[3,4′-bipyrazol]-5-yl)-3-(naphthalen-1-yl)urea]
17 | 100 to 1000 | Cc1c(-c2ccc(=O)n(C)c2)nn(-c2ccccc2)c1NC(=O)Nc1cncc2ccccc12 [Example 25, 1-(isoquinolin-4-yl)-3-(4-methyl-3-(1-methyl-6-oxo-1,6-dihydropyridin-3-yl)-1-phenyl-1H-pyrazol-5-yl)urea]
18 | < 100 | Cc1c(-c2ccc(=O)n(C)c2)nn(-c2ccccc2)c1NC(=O)Nc1ccc(Cl)c2ccccc12 [Example 1, 1-(4-chloronaphthalen-1-yl)-3-(4-methyl-3-(1-methyl-6-oxo-1,6-dihydropyridin-3-yl)-1-phenyl-1H-pyrazol-5-yl)urea]
19 | < 100 | CNC(=O)c1nn(-c2ccccc2)c(NC(=O)Nc2ccc(Cl)c3ccccc23)c1C [Example 8, 5-(3-(4-chloronaphthalen-1-yl)ureido)-N,4-dimethyl-1-phenyl-1H-pyrazole-3-carboxamide]
20 | < 100 | Cc1c(C(N)=O)nn(-c2ccccc2)c1NC(=O)Nc1ccc(Cl)c2ccccc12 [Example 7, 5-(3-(4-chloronaphthalen-1-yl)ureido)-4-methyl-1-phenyl-1H-pyrazole-3-carboxamide]
21 | < 100 | COCc1ccc2cccc(NC(=O)Nc3c(C)c(-c4ccc(=O)n(C)c4)nn3-c3ccccc3)c2c1 [Example 17, 1-(7-(methoxymethyl)naphthalen-1-yl)-3-(4-methyl-3-(1-methyl-6-oxo-1,6-dihydropyridin-3-yl)-1-phenyl-1H-pyrazol-5-yl)urea]
22 | < 100 | Cc1c(-c2cnn(C)c2)nn(-c2ccccc2)c1NC(=O)Nc1ccc(Cl)c2ccccc12 [Example 9, 1-(4-chloronaphthalen-1-yl)-3-(1′,4-dimethyl-1-phenyl-1H,1′H-[3,4′-bipyrazol]-5-yl)urea]
23 | 1000 to 10000 | Cc1c(-c2cnn(C)c2)nn(-c2ccccc2)c1NC(=O)Nc1ncc(Cl)c2ccccc12 [Example 23, 1-(4-chloroisoquinolin-1-yl)-3-(1′,4-dimethyl-1-phenyl-1H,1′H-[3,4′-bipyrazol]-5-yl)urea]
24 | < 100 | COCc1ccc2c(Cl)ccc(NC(=O)Nc3c(C)c(-c4ccc(=O)n(C)c4)nn3-c3ccccc3)c2c1 [Example 21, 1-(4-chloro-7-(methoxymethyl)naphthalen-1-yl)-3-(4-methyl-3-(1-methyl-6-oxo-1,6-dihydropyridin-3-yl)-1-phenyl-1H-pyrazol-5-yl)urea]
